IC50 data for 16 molecules are collected here from patent publication US20240368092A1, “2,4-Dihydro-3H-1,2,4-Triazol-3-One P2X7 Antagonists” (Breye Therapeutics ApS, priority 2021, published 2024).

Type in all cases: cell-based
The target in one experiment is T1, human P2X7 channel (Homo sapiens, UniProt Q99572).
T1 construct: expressed in transfected cells; host or cells: HEK-293
T1 sequence (Q99572 1-595): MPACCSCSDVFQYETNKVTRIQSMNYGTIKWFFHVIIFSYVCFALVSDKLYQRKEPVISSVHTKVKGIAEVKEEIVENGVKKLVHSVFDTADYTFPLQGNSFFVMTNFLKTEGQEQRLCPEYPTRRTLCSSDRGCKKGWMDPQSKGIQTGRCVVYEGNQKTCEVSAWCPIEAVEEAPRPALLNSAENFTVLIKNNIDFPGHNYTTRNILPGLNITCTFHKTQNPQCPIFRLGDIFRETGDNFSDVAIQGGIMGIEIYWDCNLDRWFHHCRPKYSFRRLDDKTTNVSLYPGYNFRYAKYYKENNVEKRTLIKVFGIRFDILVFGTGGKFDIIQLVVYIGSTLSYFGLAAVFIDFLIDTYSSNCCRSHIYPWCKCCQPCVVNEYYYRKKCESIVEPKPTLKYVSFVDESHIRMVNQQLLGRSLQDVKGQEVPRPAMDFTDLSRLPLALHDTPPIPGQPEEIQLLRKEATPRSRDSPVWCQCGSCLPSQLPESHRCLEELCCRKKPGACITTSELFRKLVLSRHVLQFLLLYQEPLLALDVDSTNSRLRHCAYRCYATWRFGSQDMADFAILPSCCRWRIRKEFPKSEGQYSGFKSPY
Put plainly: human P2X7 channel assay by automated patch-clamp (QPatch 16X). Particulars: HEK-293 cells expressing P2X7; current evoked by 100 microM BzATP; whole-cell, held at -80 mV; read-out: human Q-Patch (activity range). A digest of the protocol:
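Whole-cell patch clamp on HEK-293 cells expressing P2X7, room temperature, held at −80 mV, CsF internal and NaCl external (pH 7.4). Currents evoked by 100 microM BzATP, four controls then with compound at 1, 10, 100 and 1000 nM; peak inward current normalized, IC50 from dose-response fit, reported as potency bins.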
(In general: In patch-clamp work, channel activity is measured electrically.)

The target of the next experiment is T2, humanP2X7 (Homo sapiens, UniProt Q99572).
T2 construct: expressed in transfected cells; host or cells: HEK-293
T2 sequence (Q99572 1-595): T1 sequence (Q99572 1-595)
Nature of the experiment: P2X7 channel calcium-influx assay (Fluo-8, FLIPR TETRA), human P2X7. The conditions noted are these: HEK-293 cells stably transfected with P2X7; Bz-ATP at EC80; low divalent cation buffer; read-out: humanP2X7 (activity range). A digest of the protocol: (§1)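 HEK-293 cells stably expressing the respective species' P2X7, Fluo-8 NW loaded 1 h at RT in low divalent buffer (0.3 mM Ca2+, 0 mM Mg2+). Compound preincubated 5 min, then Bz-ATP at EC80; FLIPR calcium influx over 3 min. IC50 from % inhibition relative to reference antagonist A438079, reported as potency bins.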

Another experiment deals with T3, mouseP2X7 (Mus musculus, UniProt Q9Z1M0).
T3 construct: expressed in transfected cells; host or cells: HEK-293
T3 sequence (Q9Z1M0 1-595): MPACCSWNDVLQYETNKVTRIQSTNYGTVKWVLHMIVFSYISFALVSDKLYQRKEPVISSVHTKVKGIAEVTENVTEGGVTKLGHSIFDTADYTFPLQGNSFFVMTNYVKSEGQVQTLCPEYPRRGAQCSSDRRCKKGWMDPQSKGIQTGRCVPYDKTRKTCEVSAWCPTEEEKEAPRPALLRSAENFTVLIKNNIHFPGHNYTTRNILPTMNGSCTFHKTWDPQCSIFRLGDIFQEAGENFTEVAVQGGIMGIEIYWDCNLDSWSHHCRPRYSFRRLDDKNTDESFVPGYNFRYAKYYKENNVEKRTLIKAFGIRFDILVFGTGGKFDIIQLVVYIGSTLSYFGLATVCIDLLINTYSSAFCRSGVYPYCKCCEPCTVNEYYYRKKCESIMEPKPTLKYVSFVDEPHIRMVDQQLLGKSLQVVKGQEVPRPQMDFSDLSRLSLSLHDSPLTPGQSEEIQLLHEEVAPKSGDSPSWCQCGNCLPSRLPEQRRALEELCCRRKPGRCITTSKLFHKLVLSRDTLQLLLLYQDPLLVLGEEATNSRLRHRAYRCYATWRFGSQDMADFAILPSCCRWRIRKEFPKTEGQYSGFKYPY
Nature of the experiment: P2X7 channel calcium-influx assay (Fluo-8, FLIPR TETRA), mouse P2X7. Particulars: HEK-293 cells stably transfected with P2X7; Bz-ATP at EC80; low divalent cation buffer; read-out: mouseP2X7 (activity range). A digest of the protocol: as §1

The target in another experiment is T4, ratP2X7 (Rattus norvegicus, UniProt Q64663).
T4 construct: expressed in transfected cells; host or cells: HEK-293
T4 sequence (Q64663 1-595): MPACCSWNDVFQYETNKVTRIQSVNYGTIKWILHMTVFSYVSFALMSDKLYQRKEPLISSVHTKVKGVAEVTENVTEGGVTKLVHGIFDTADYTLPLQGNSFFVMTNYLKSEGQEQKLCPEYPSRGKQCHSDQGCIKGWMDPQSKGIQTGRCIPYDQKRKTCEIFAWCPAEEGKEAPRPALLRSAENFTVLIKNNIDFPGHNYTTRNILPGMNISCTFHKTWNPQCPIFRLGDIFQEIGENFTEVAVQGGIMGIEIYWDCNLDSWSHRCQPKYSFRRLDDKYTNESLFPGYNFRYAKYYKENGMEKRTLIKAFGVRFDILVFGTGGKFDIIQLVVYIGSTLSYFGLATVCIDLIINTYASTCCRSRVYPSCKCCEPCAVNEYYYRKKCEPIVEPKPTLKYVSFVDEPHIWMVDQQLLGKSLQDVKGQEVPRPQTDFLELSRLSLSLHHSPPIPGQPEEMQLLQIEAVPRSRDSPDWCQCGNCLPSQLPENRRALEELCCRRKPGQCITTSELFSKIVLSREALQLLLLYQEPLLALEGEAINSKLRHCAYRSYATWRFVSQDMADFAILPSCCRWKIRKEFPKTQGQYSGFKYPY
Put plainly: P2X7 channel calcium-influx assay (Fluo-8, FLIPR TETRA), rat P2X7. The conditions noted are these: HEK-293 cells stably transfected with P2X7; Bz-ATP at EC80; low divalent cation buffer; read-out: ratP2X7 (activity range). A digest of the protocol:
as §1

For `Cn1nc(Cc2c(F)cccc2Cl)n(CCN2CCOCC2(C)C)c1=O` [Example 30, 5-(2-chloro-6-fluorobenzyl)-4-(2-(3,3-dimethylmorpholino)ethyl)-2-methyl-2,4-dihydro-3H-1,2,4-triazol-3-one], the IC50 on human P2X7 channel was in the range of 1000 to 10000 nM; at humanP2X7, 1000 to 10000 nM; at mouseP2X7 it was 10000 to 30000 nM; at ratP2X7, 1000 to 10000 nM.
For `Cc1ncccc1Cn1c(CC2CCCCC2)nn(C)c1=O` [Example 31, 5-(cyclohexylmethyl)-2-methyl-4-((2-methylpyridin-3-yl)methyl)-2,4-dihydro-3H-1,2,4-triazol-3-one], the IC50 is 100 to 1000 nM at human P2X7 channel, 1000 to 10000 nM on humanP2X7, 10000 to 30000 nM on mouseP2X7 and 1000 to 10000 nM at ratP2X7.
For `Cn1nc(Cc2ccccc2F)n(CC2CCCCC2(C)C)c1=O` (stereo not shown) [Example 32, 4-((2,2-dimethylcyclohexyl)methyl)-5-(2-fluorobenzyl)-2-methyl-2,4-dihydro-3H-1,2,4-triazol-3-one], the IC50 was 1000 to 10000 nM at human P2X7 channel, 1000 to 10000 nM on humanP2X7, 1000 to 10000 nM on mouseP2X7 and < 200 nM on ratP2X7.
Take `Cn1nc(Cc2c(F)cccc2Cl)n(CC2CCCCC2(C)C)c1=O` (stereo not shown) [Example 33, 5-(2-chloro-6-fluorobenzyl)-4-((2,2-dimethylcyclohexyl)methyl)-2-methyl-2,4-dihydro-3H-1,2,4-triazol-3-one]: the IC50 on human P2X7 channel is 10 to 100 nM; at humanP2X7 it was < 200 nM; on mouseP2X7, 200 to 1000 nM; on ratP2X7, < 200 nM.
`CCn1nc(Cc2c(F)cccc2Cl)n(CC2CCC(F)(F)CC2)c1=O` [Example 34, 5-(2-chloro-6-fluorobenzyl)-4-((4,4-difluorocyclohexyl)methyl)-2-ethyl-2,4-dihydro-3H-1,2,4-triazol-3-one]: the IC50 on human P2X7 channel was 10 to 100 nM; at humanP2X7, < 200 nM; on mouseP2X7, < 200 nM; at ratP2X7, < 200 nM.
Turning to `Cn1nc(Cc2ccc(F)cc2Cl)n(CC2CCC3(CC2)CC3)c1=O` [Example 35, 5-(2-chloro-4-fluorobenzyl)-2-methyl-4-(spiro[2.5]octan-6-ylmethyl)-2,4-dihydro-3H-1,2,4-triazol-3-one], the IC50 was 100 to 1000 nM on human P2X7 channel, 200 to 1000 nM at humanP2X7, 1000 to 10000 nM on mouseP2X7 and < 200 nM at ratP2X7.
For the molecule `Cn1nc(Cc2ccc(F)cc2Cl)n(CCC2CCC(F)(F)CC2)c1=O` [Example 36, 5-(2-chloro-4-fluorobenzyl)-4-(2-(4,4-difluorocyclohexyl)ethyl)-2-methyl-2,4-dihydro-3H-1,2,4-triazol-3-one], the IC50 lay within 100 to 1000 nM on human P2X7 channel, 200 to 1000 nM on humanP2X7, 1000 to 10000 nM on mouseP2X7 and 200 to 1000 nM at ratP2X7.
Regarding `Cn1nc(Cc2ccccc2F)n(CC2CCCCCC2)c1=O` [Example 37, 4-(cycloheptylmethyl)-5-(2-fluorobenzyl)-2-methyl-2,4-dihydro-3H-1,2,4-triazol-3-one], the IC50 was 100 to 1000 nM at human P2X7 channel, 200 to 1000 nM at humanP2X7, 200 to 1000 nM at mouseP2X7 and < 200 nM at ratP2X7.
Take `Cn1nc(CC2CCCCC2)n(Cc2cc(-c3ncc(F)cn3)ccc2Cl)c1=O` [Example 38, 4-(2-chloro-5-(5-fluoropyrimidin-2-yl)benzyl)-5-(cyclohexylmethyl)-2-methyl-2,4-dihydro-3H-1,2,4-triazol-3-one]: the IC50 is 1000 to 10000 nM at human P2X7 channel, 200 to 1000 nM on humanP2X7, 1000 to 10000 nM at mouseP2X7 and 200 to 1000 nM on ratP2X7.
As for `Cn1nc(Cc2ccccc2C(F)(F)F)n(CCC2CCC(F)(F)CC2)c1=O` [Example 39, 4-(2-(4,4-difluorocyclohexyl)ethyl)-2-methyl-5-(2-(trifluoromethyl)benzyl)-2,4-dihydro-3H-1,2,4-triazol-3-one], the IC50 at human P2X7 channel is 100 to 1000 nM; on humanP2X7 it was 200 to 1000 nM; at mouseP2X7, 1000 to 10000 nM; on ratP2X7, 200 to 1000 nM.
Consider `Cn1nc(Cc2ccccc2C(F)(F)F)n(CC2CCC(C(F)(F)F)CC2)c1=O` (stereo not shown) [Example 40, 2-methyl-5-(2-(trifluoromethyl)benzyl)-4-((4-(trifluoromethyl)cyclohexyl)methyl)-2,4-dihydro-3H-1,2,4-triazol-3-one], for which the IC50 on human P2X7 channel is 100 to 1000 nM; at humanP2X7, < 200 nM; on mouseP2X7 it was 1000 to 10000 nM; at ratP2X7 it was < 200 nM.
Turning to `Cn1nc(Cc2ccc(F)cc2Cl)n(CCC2CCC(C)(C)CC2)c1=O` [Example 41, 5-(2-chloro-4-fluorobenzyl)-4-(2-(4,4-dimethylcyclohexyl)ethyl)-2-methyl-2,4-dihydro-3H-1,2,4-triazol-3-one], the IC50 at human P2X7 channel lay within 1000 to 10000 nM; on humanP2X7, 200 to 1000 nM; on mouseP2X7, 10000 to 30000 nM; on ratP2X7, 1000 to 10000 nM.
Take `Cn1nc(Cc2ccccc2Cl)n(CC2CCC(F)(F)CC2)c1=O` [Example 42, 5-(2-chlorobenzyl)-4-((4,4-difluorocyclohexyl)methyl)-2-methyl-2,4-dihydro-3H-1,2,4-triazol-3-one]: the IC50 at human P2X7 channel was 10 to 100 nM; at humanP2X7, < 200 nM; at mouseP2X7 it was 200 to 1000 nM; at ratP2X7, < 200 nM.
In the case of `O=c1n(CC2CC2)nc(Cc2c(F)cccc2Cl)n1CC1CCC(F)(F)CC1` [Example 43, 5-(2-chloro-6-fluorobenzyl)-2-(cyclopropylmethyl)-4-((4,4-difluorocyclohexyl)methyl)-2,4-dihydro-3H-1,2,4-triazol-3-one], the IC50 on human P2X7 channel was 10 to 100 nM; on humanP2X7, < 200 nM; at mouseP2X7, < 200 nM; at ratP2X7 it was < 200 nM.
On to `O=c1n(CC(F)(F)F)nc(Cc2c(F)cccc2Cl)n1CC1CCC(F)(F)CC1` [Example 44, 5-(2-chloro-6-fluorobenzyl)-4-((4,4-difluorocyclohexyl)methyl)-2-(2,2,2-trifluoroethyl)-2,4-dihydro-3H-1,2,4-triazol-3-one], for which the IC50 at human P2X7 channel was < 10 nM; at humanP2X7, < 200 nM; on mouseP2X7, < 200 nM; on ratP2X7, < 200 nM.
For the molecule `Cn1nc(Cc2ccccc2F)n(CCC2CCC(C)(C)CC2)c1=O` [Example 45, 4-(2-(4,4-dimethylcyclohexyl)ethyl)-5-(2-fluorobenzyl)-2-methyl-2,4-dihydro-3H-1,2,4-triazol-3-one], the IC50 on human P2X7 channel was 1000 to 10000 nM; on humanP2X7 it was 1000 to 10000 nM; on mouseP2X7 it was 10000 to 30000 nM; at ratP2X7, 1000 to 10000 nM.
